Experimental data from US20230067910A1, “NOVEL COMPOUNDS FOR THE DIAGNOSIS, TREATMENT AND PREVENTION OF DISEASES ASSOCIATED WITH THE AGGREGATION OF ALPHA-SYNUCLEIN” (MODAG GMBH, priority 2019, published 2023).
Read-outs that look alike come from different tables or passages of the source.

Tests used:
[1] = biological target: T1, alpha-synuclein (fibrils) (Homo sapiens, UniProt P37840); experiment: Competition binding assay, protocol 3a, reference ligand [3H]-compound 1, alpha-synuclein fibrils; settings: reference ligand [3H]-compound 1 (1 nM)
T1 construct: made in house; host or cells: E. coli
Procedure: (§1) Alpha-synuclein and tau46 were purified from E. coli according to established protocols (Nuscher B, et al., J. Biol. Chem., 2004; 279(21):21966-75), Aβ1-42 was obtained from rPeptide, Watkinsville, Ga., USA. Fibrils were prepared by aggregation of recombinant protein via constant agitation. In detail, 70 μM of alpha-synuclein mixed with 100 mM NaCl in 50 mM Tris, pH 7.0+0.02% NaN3 were incubated at 1,400 rpm, 37° C. for 96 h. 10 μM of tau46 were incubated with 0.03 mg/ml heparin in 50 mM Tris, pH=7.0 at 1,000 rpm, 37° C. for 72 h. Aβ1-42 was solved in 20 mM NaPi, pH=8.0+0.2 mM EDTA+0.02% NaN3 (Deeg A A, et al., Biochim. Biophys. Acta, 2015; 1850(9): 1884-90; Goedert M, et al. Nature, 1996; 383(6600): 550-3).
(§2) A fixed concentration of sonicated human recombinant αSYN (200 nM/well) or tau46 (208 nM/well) fibrils diluted in phosphate buffered saline (PBS) were incubated in low binding plates (96 well micro test plate, Ratiolab GmbH, Dreieich, Germany) together with 1 nM [^3H]-compound 1 and 1:4 serial dilutions of the cold compound of interest starting from 1 μM diluted in 50 mM Tris-base, 10% EtOH, 0.05% Tween20, pH 7.4. For the calculation of Ki values the KD value of compound 1 toward sonicated human recombinant αSYN fibrils was set to 3 nM.
(§3) Assay plates were incubated under agitation at 37° C. for 2 h covered by plastic foil (Resealable tape, PerkinElmer, Waltham, Mass., USA). Prior to harvesting, a filter (Printed filtermat B, PerkinElmer, Waltham, Mass., USA) was incubated with 5 mg/mL polyethylenimine (PEI, Poly(ethyleneimine) solution, Sigma Aldrich Chemie GmbH, Taufkirchen, Germany) at 4° C. for 30 min. After incubation, bound and free ligands were separated by vacuum filtration using a harvester (Filtermate harvester, PerkinElmer, Waltham, Mass., USA). The filter was washed three times with buffer cooled to 4° C. and subsequently dried in the microwave for 2 min at medium power. The filter was sealed in a plastic bag (Sample bag for MicroBeta®, PerkinElmer, Waltham, Mass., USA) together with added scintillator (BETAPLATE SCINT, PerkinElmer, Waltham, Mass., USA). Accumulation of tritium was counted in a liquid scintillation counter (Wallac MicroBeta® TriLux, 1450 LSC & Luminescence Counter, PerkinElmer, Waltham, Mass., USA) immediately. Radioactivity was plotted against the increasing tritium-labeled compound or cold compound concentrations. Data points were fitted using nonlinear regression analysis in GraphPad Prism (GraphPad Software, Inc., Version 7.03, La Jolla, Calif., USA).
(§4) The fibril competition assay provides Ki values. Ki is a quantitative measure that represents the concentration of the non-radioactive tested compound (competitor ligand) required to replace 50% of a reference compound, in this case [H]-compound 1 (1 nM) or [H]-compound 2 (1 nM), which is bound to the target structures (1 nM), in our case recombinant alpha-synuclein and tau46 fibrils. This assay is suitable for a screening of non-radioactive ligands.

[2] = test system: H4 cells overexpressing alpha-synuclein hemi-Venus fusion constructs (V1S+SV2); experiment: Cellular model of aggregated alpha-synuclein-dependent toxicity, V1S+SV2 H4 cells; type: cell-based; settings: 10 μM compound, 100 μM FeCl3, 0.75% DMSO, 48 h; for inhibition at 10 µM: read-out: Change in fraction of condensed nuclei (rel. to DMSO control) [%]
Procedure: (§5) To identify potential therapeutically useful effects, compounds were tested in two cellular models of aggregated alpha-synuclein-dependent toxicity in H4 cells. These cellular models allow for the inducible overexpression of alpha-synuclein hemi-Venus fusion constructs (V1S+SV2) or full-length alpha-synuclein (the model is described in detail in: Bartels M, Weckbecker D, Kuhn P H, Ryazanov S, Leonov A, Griesinger C, Lichtenthaler S F, Bötzel K, Giese A: Iron-mediated aggregation and toxicity in a novel neuronal cell culture model with inducible alpha-synuclein expression, Sci. Rep. 2019 Jun. 24; 9(1):9100). Moreover, addition of DMSO and FeCl3 promotes the aggregation of alpha-synuclein which is associated with an increase in cytotoxicity. The cell culture assay uses these effects by determining the change in the number of cells and the change in the percentage of condensed nuclei, which is indicative of apoptosis, in order to obtain information on which compounds show the most promising effects and thus might be therapeutically useful.
(§6) In these experiments, cells were incubated with 100 μM FeCl3 and 0.75% DMSO in the presence of 10 μM anle138c as a positive control, compounds 1 to 19 (10 μM), or DMSO as a negative control. After 48 h, the cells were imaged with an OPERA high-throughput imaging system and analyzed using Acapella software (Perkin Elmer). […] A reduction in the fraction of condensed nuclei (in the absence of a strong reduction in cell number) is indicative of a beneficial therapeutic effect.

[3] = test system: H4 cells overexpressing full-length alpha-synuclein; experiment: Cellular model of aggregated alpha-synuclein-dependent toxicity, full-length alpha-synuclein H4 cells; type: cell-based; settings: 10 μM compound, 100 μM FeCl3, 0.75% DMSO, 48 h; for inhibition at 10 µM: read-out: Change in fraction of condensed nuclei (rel. to DMSO control) [%]
Procedure: as §5, §6

[4] = biological target: T2, alpha-synuclein (sonicated fibrils) (Homo sapiens, UniProt P37840); experiment: Modified competition binding assay, protocol 3b, reference ligand [3H]-compound 2; settings: Table 5, reference ligand [3H]-compound 2 (1 nM)
T2 construct: made in house; host or cells: E. coli
Procedure: as §1
For competition binding experiments, a fixed concentration of recombinant αSYN fibrils (sonicated, 15 nM/well) was incubated with 1 nM [^3H]-compound 1 or [3H]-compound 2 and decreasing concentrations of a serial dilution of non-labeled competitor (serial dilution 1:4 or 1:3.5 or 1:3 providing the concentration ranges of non-labeled competitor 1 μM-[…] 1 μM-4 nM or 1 μM-[…], respectively) in 30 mM Tris-HCl, 10% ethanol, 0.05% Tween20, pH 7.4 in a total volume of 200 μL/well. Plates were incubated for 4.5 hours at RT covered by removable sealing tape (PerkinElmer, Waltham, Mass., USA).
Filtration and readout were performed as described for saturation binding assays. [^3H]-labeled ligand binding [in CMP] was plotted against increasing competitor concentrations and data points were fitted using non-linear regression analysis to calculate the IC50 and Ki values (GraphPad Software, Inc., Version 7.03, La Jolla (Calif.), USA). In the competition binding assay with sonicated recombinant αSYN fibrils, the calculation of Ki values was done based on KD values of 0.6 nM and 0.2 nM for compound 1 and compound 2, respectively.
as §4

tau46 (fibrils) = biological target: T3, tau46 (fibrils) (Homo sapiens, UniProt P10636); experiment: Competition binding assay, protocol 3a, reference ligand [3H]-compound 1, tau46 fibrils; settings: Experiment B, reference ligand [3H]-compound 1 (1 nM)
T3 construct: made in house; host or cells: E. coli
T3 sequence (P10636 1-412 isoform P10636-7): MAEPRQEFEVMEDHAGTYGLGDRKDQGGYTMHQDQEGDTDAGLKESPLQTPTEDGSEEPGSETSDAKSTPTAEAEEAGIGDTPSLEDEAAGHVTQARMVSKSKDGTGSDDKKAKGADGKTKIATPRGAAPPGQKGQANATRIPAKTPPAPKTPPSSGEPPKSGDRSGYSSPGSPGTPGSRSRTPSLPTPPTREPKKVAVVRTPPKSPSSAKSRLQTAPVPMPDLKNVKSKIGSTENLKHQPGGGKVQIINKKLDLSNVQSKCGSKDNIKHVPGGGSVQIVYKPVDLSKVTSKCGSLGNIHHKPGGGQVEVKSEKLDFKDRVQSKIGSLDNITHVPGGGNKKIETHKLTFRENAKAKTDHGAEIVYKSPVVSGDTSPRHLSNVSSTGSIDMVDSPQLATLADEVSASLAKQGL
Procedure: as §1, §2, §3, §4

[5] = biological target: T4, aggregated alpha-synuclein (Homo sapiens, UniProt P37840); experiment: Saturation binding assay, protocol 2a, alpha-synuclein fibrils; settings: saturation assay protocol 2a, [3H]-labeled compound; read-out: KD [nM] for aggregated alpha-synuclein
T4 construct: made in house; host or cells: E. coli
Procedure: as §1
Sonicated αSYN (0.04 μM) or tau46 (0.4 μM) or Aβ1-42 (6 μM) fibrils diluted in PBS were incubated with decreasing concentrations of [^3H]-labeled compound (48 nM or 24 nM-[…]) in 50 mM Tris-base, 10% ethanol, 0.05% Tween20, pH 7.4. To determine non-specific binding, the respective unlabeled compound (400 nM) was added to a duplicate set of binding reactions.
as §3, with “2 h,” for “2 h”, “microwave oven” for “microwave”, “power. Melt-on scintillator sheets (MeltiLex™ B/HS, PerkinElmer, Waltham, Mass., USA) were molten into the filter using a heating plate set to 120° C. After solidifying at room temperature, the” for “power. The”, “MicroBeta®,” for “MicroBeta®, PerkinElmer, Waltham, Mass., USA) together with added scintillator (BETAPLATE SCINT,”
The fibril-binding saturation assay provides KD values. This assay is performed with directly radioactively labeled compounds (e.g. ^3H labeling). The saturation binding assays were performed using as target structures fibrillar aggregates produced from recombinant human alpha-synuclein, Aβ1-42, and tau46, respectively.

[6] = biological target: T2, alpha-synuclein (sonicated fibrils); experiment: Modified competition binding assay, protocol 3b, reference ligand [3H]-compound 1; settings: Table 4b, reference ligand [3H]-compound 1 (1 nM), read-out: Ki (nM) alpha-synuclein (sonicated fibrils)
Procedure: Fibrils were prepared by aggregation of recombinant protein via constant agitation. In detail, 70 μM of alpha-synuclein mixed with 100 mM NaCl in 50 mM Tris, pH 7.0+0.02% NaN3 were incubated at 1,400 rpm, 37° C. for 96 h. 10 μM of tau46 were incubated with 0.03 mg/ml heparin in 50 mM Tris, pH=7.0 at 1,000 rpm, 37° C. for 72 h.
Plates were incubated for 4.5 hours at RT covered by removable sealing tape (PerkinElmer, Waltham, Mass., USA).
Filtration and readout were performed as described for saturation binding assays.
The fibril competition assay provides Ki values. […] This assay is suitable for a screening of non-radioactive ligands.

[7] = Experiment A, read-out: Ki (nM) alpha-synuclein (fibrils)
[8] = Experiment B, read-out: Ki (nM) alpha-synuclein (sonicated fibrils)

Row | SMILES | Ki [1, 7] [nM] | Ki [1, 8] [nM] | Ki [4] [nM] | Ki (tau46 (fibrils)) [nM] | Kd [5] [nM] | Ki [6] [nM] | Change in cell number (rel. to DMSO control) [%] [2] [%] | inhibition at 10 µM [2] [%] | Change in cell number (rel. to DMSO control) [%] [3] [%] | inhibition at 10 µM [3] [%]
1 | Brc1cncc(-c2cc(-c3ccc4c(c3)OCO4)n[nH]2)c1 [Compound 10] | 34 | 25 | 7.8 | > 100 | – | – | −32.8 | 50.3 | −35.3 | 60.2
2 | Cn1nc(-c2ccc3c(c2)OCO3)cc1-c1ccnc(Br)c1 [Compound 18, 4-[3-(1,3-benzodioxol-5-yl)-1-methyl-1H-pyrazol-5-yl]-2-bromopyridine] | – | – | – | – | 126 | – | −11.8 | 19.9 | −21.3 | 18.2
3 | CN(C)c1ccc(-c2cc(-c3ccnc(Br)c3)[nH]n2)cn1 [Compound 4, 5-[5-(2-bromopyridin-4-yl)-1H-pyrazol-3-yl]-N,N-dimethylpyridin-2-amine] | 8 | 13 | 0.7 | 31 | – | – | −36.9 | -33.7 | −48.6 | 30.1

Now from value to compound, other results behind:

Row | Ki [1, 7] [nM] | Ki [1, 8] [nM] | Ki [4] [nM] | Ki (tau46 (fibrils)) [nM] | Kd [5] [nM] | Ki [6] [nM] | SMILES | Change in cell number (rel. to DMSO control) [%] [2] [%] | inhibition at 10 µM [2] [%] | Change in cell number (rel. to DMSO control) [%] [3] [%] | inhibition at 10 µM [3] [%]
4 | < 0.1 | 3 | 0.95 | 4 | – | – | CN(C)c1ccc(-c2cc(-c3ccnc(F)c3)[nH]n2)cc1 [Compound 3, 4-[5-(2-fluoropyridin-4-yl)-1H-pyrazol-3-yl]-N,N-dimethylaniline] | −11.3 | 31.9 | −34.8 | 79.1
5 | – | 2 | 0.8 | 1 | – | – | Brc1cc(-c2cc(-c3ccc(N4CCC4)cc3)n[nH]2)ccn1 [Compound 17, 4-{3-[4-(azetidin-1-yl)phenyl]-1H-pyrazol-5-yl}-2-bromopyridine] | −8.2 | 38.3 | −28.9 | 55
6 | 2 | < 4 | 3.3 | 28 | – | 2.1 | Brc1cc(-c2cc(-c3ccc4c(c3)OCO4)n[nH]2)ccn1 [Compound 9, 4-[3-(1,3-benzodioxol-5-yl)-1H-pyrazol-5-yl]-2-bromopyridine] | −22.5 | 31.8 | −35.3 | 23.8
